Reference: patent US4094966A, “Iodobenzene derivatives and X-ray contrast media containing the same” (priority 1974, dated 1978)

Tests used:
[1] = Osmolality determination (FISKE osmometer); assay type: physicochemical; settings: solutions containing 28% iodine; methylglucamine salts; extrapolation from successive dilutions
Method: Osmolality is determined by extrapolation of the values obtained on successive dilutions of solutions containing 28% or 38% iodine.
Osmolality readings are made with a FISKE Model 230/D/330 D osmometer. This apparatus indicates this measurement as milliosmoles per kg of solution. Its operation is based on the principles of cryoscopy. The determinations were made with solutions containing 28% iodine.

femoral artery = experiment: Effect on the femoral rate of flow (peripheral vasodilatation); assay type: in vivo, mongrels
Method: This test was carried out in Nembutal-anesthetized male or female 7-12 mongrels.
Nembutal was used at a dosage of 30 mg/kg, with Vetranquil pre-medication, (overall intravenous injection of 2.5 mg), respiration was spontaneous.
Rate of flow variations were recorded at the level of the right or left fermoral artery, by means of a Statham electromagnetic sensor.
The injections were made in a collateral of the fermoral artery, downstream of the sensor, by means of a catheter mounted by the retrograde route, so as not to perturb the blood flow.
The injections were made under a constant volume of 1.5 ml administered within 3-5 seconds.
The same volume of an iostonic sodium chloride solution was also injected.

mice = experiment: Acute toxicity determination, intravenous toxicity in mice; assay type: in vivo, mice (Swiss origin, IOPS mice of OFI strain); settings: 24 hours
Method: Intravenous toxicity determination was effected in Swiss origin, IOPS mice of OFI strain.
Each dosage level was injected to a lot of 10 mice comprising 5 male and 5 female mice.
Injections were made manually, in the caudal vein, at a rate of 2 ml/minute.
Death rate during the 24 hours after injection was recorded.

[2] = Biliary clearance test in cats; assay type: in vivo; set-up: scale not given here
Method: This test was conducted in male or female adult cats weighing 3-4 kg.
The test material was injected intravenously, at a dosage of 0.10 g/kg iodine at the level of the internal saphenous vein. Clearance of the material was monitored by X-ray control.
X-ray pictures visualizing the gall bladder and the bladder were taken at the following times: 30 minutes, 1 hour, 2 hours, 3 hours, 4 hours, 5 hours, 6 hours.

[3] = Viscosity of 28% methylglucamine salt solutions at 37° C; assay type: physicochemical; settings: 28% iodine methylglucamine salt solution
Method: Pharmaceutical grade injectable solutions are prepared in the form of the methylgucamine or sodium salt, containing 28, 38 or 48 g iodine per 100 ml (solutions said to contain 28%, 38% and 48% iodine).
It is apparent, from said results, that, contrary to expectations, the compounds of the formula (I) have relatively low solution viscosities.

rats = experiment: Toxicological investigation in rats on intracisternal injection (Melartin's method); assay type: in vivo
Excerpt: The results of a toxicological investigation effected in rats on intracisternal injection, according to E. Melartin's method (InvestigativeRadiology 1970 5, 1, 13-21) are also set forth below.

[4] = 1.5 ml into collateral of femoral artery, 28% I, Mgl salt
[5] = i.v., 0.10 g I/kg, 28% I, Mgl salt
[6] = 1.5 ml into collateral of femoral artery, 38% I, Na salt

Structure (SMILES)	Osmolality [1] [mosm/kg]	Peripheral vasodilatation, femoral rate of flow (femoral artery; [4])	Acute toxicity in mice, i.v. (mice; 28% I, Mgl salt)	Biliary clearance in cat, i.v. [2, 5]	Viscosity [3] [cps]	other results
CNC(=O)c1c(I)c(NC(=O)CNC(=O)c2c(I)c(C(=O)NCCO)c(I)c(N(C)C(C)=O)c2I)c(I)c(C(=O)O)c1I [Compound 8, 2,4,6-triiodo-3-N-methylcarbamyl-5-(2,4,6-triiodo-3-N-hydroxyethylcarbamyl-5-N-methylacetamido-benzoyl)glycyl amino-benzoic acid]	535	++	12 grams I/kg	±	5.5	–
CNC(=O)c1c(I)c(C(=O)NCC(=O)Nc2c(I)c(C(=O)O)c(I)c(C(=O)NCCO)c2I)c(I)c(N(C)C(C)=O)c1I [Compound 1, 2,4,6-triiodo-3-N-hydroxyethylcarbamyl-5-(2,4,6-triiodo-3-N-methylcarbamyl-5-N-methyl-N-acetylaminobenzoyl)glycylamino-benzoic acid]	510	–	–	–	5.4	Peripheral vasodilatation, femoral rate of flow (femoral artery; in vivo): +; Acute toxicity in mice, i.v. (mice; 38% I, Mgl salt): 11.5 grams I/kg; Biliary clearance in cat, i.v. ([2]; in vivo, iv): ±
CNC(=O)c1c(I)c(NC(=O)CCCCC(=O)Nc2c(I)c(C(=O)O)c(I)c(C(=O)NC)c2I)c(I)c(C(=O)O)c1I [c, 5,5'-Adipoyldiimido-bis-(2,4,6-triiodo-N-methylisophthalamic)acid, reference compound]	950	++	6.2 grams I/kg	0	–	Death rate (rats; 17 mg I per rat): 9/10
CNC(=O)c1c(I)c(NC(C)=O)c(I)c(C(=O)NCC(=O)N(C)c2c(I)c(C(=O)O)c(I)c(C(=O)NC)c2I)c1I [Compound 14, 2,4,6-triiodo-3-N-methylcarbamyl-5-(2,4,6-triiodo-3-N-methylcarbamyl-5-acetamido-benzoyl)-glycyl-N-methylamino-benzoic acid]	600	+	12 grams I/kg	+	5.2	–
CNC(=O)c1c(I)c(NC(=O)CNC(=O)c2c(I)c(C(=O)NC)c(I)c(N(C)C(C)=O)c2I)c(I)c(C(=O)O)c1I [Compound 9, 2,4,6-triiodo-3-N-methylcarbamyl-5-(2,4,6-triiodo-3-N-methylcarbamyl-5-N-methylacetamido-benzoyl)-glycylamino-benzoic acid]	440	–	–	–	5.8	Peripheral vasodilatation, femoral rate of flow (femoral artery; 1.5 ml into collateral of femoral artery, 38% I, Mgl salt): +; Acute toxicity in mice, i.v. (mice; 38% I, Mgl salt): 11.5 grams I/kg; Biliary clearance in cat, i.v. ([2]; i.v., 0.10 g I/kg, 38% I, Mgl salt): ++
CNC(=O)c1c(I)c(C(=O)O)c(I)c(N(C)C(=O)CN(CC(=O)Nc2c(I)c(C(=O)NCCO)c(I)c(C(=O)NCCO)c2I)CC(=O)Nc2c(I)c(C(=O)NCCO)c(I)c(C(=O)NCCO)c2I)c1I [Compound 33, 2,4,6-triiodo-3-N-methylcarbamyl-5-bis{[2,4,6-triiodo-3,5,-bis(N-hydroxyethylcarbamyl)-phenyl]carbamylmethyl}amino-N-methylacetamido-benzoic acid]	370	–	–	–	–	Peripheral vasodilatation, femoral rate of flow (femoral artery; [6]): ++; Acute toxicity in mice, i.v. (mice; 38% I, Na salt): 17 grams I/kg; Death rate (rats; 56 mg I per rat): 0/10
CNC(=O)c1c(I)c(NC(C)=O)c(I)c(C(=O)NCC(=O)Nc2c(I)c(C(=O)O)c(I)c(C(=O)NCCO)c2I)c1I [Compound 3, 2,4,6-triiodo-3-N-hydroxyethylcarbamyl-5-(2,4,6-triiodo-3-N-methylcarbamyl-5-acetamidio-benzoyl)-glycylaminobenzoic acid]	550	+	9-10 grams I/kg	–	5.72	–
CNC(=O)c1c(I)c(NC(C)=O)c(I)c(C(=O)NCC(=O)Nc2c(I)c(C(=O)O)c(I)c(N(C)C(C)=O)c2I)c1I [Compound 26, 12,4,6-triiodo-3-N-methylacetamido-5-(2,4,6-triiodo-3-N-methylcarbamyl-5-acetamido-benzoyl)-glycylamino-benzoic acid]	500	–	–	–	–	Peripheral vasodilatation, femoral rate of flow (femoral artery; [6]): ++; Acute toxicity in mice, i.v. (mice; 38% I, Na salt): 13 grams I/kg; Biliary clearance in cat, i.v. ([2]; i.v., 0.10 g I/kg, 38% I, Na salt): 0
CNC(=O)c1c(I)c(C(=O)NCC(=O)Nc2c(I)cc(I)c(C(=O)O)c2I)c(I)c(N(C)C(C)=O)c1I [Compound 19, 2,4,6-triiodo-5-(2,4,6-triiodo-3-N-methylcarbamyl-5-N-methylacetamido-benzoyl) glycylamino-benzoic acid]	500	++++	4 grams I/kg	++++	–	–
CC(=O)Nc1c(I)c(C(=O)O)c(I)c(C(=O)NCCO)c1I [b, 2,4,6-Triiodo-3-N-hydroxyethylcarbamyl-5-acetamido-benzoic acid, reference compound]	1390	–	–	–	–	Peripheral vasodilatation, femoral rate of flow (femoral artery; 1.5 ml into collateral of femoral artery, 30% I, Mgl salt): +++; Acute toxicity in mice, i.v. (mice; 30% I, Mgl salt): 5.6 grams I/kg; Biliary clearance in cat, i.v. ([2]; i.v., 0.10 g I/kg, 30% I, Mgl salt): 0
CNC(=O)c1c(I)c(NC(=O)CCCNC(=O)c2c(I)c(C(=O)NC)c(I)c(N(C)C(C)=O)c2I)c(I)c(C(=O)O)c1I [Compound 2, 2,4,6-triiodo-3-N-methylcarbamyl-5-(2,4,6-triiodo-3-N-methylcarbamyl-5-N-methylacetamido-benzoyl)-γ-aminobutyrylamino-benzoic acid]	475	+	9.5 grams I/kg	0	6.56	–
CC(=O)Nc1c(I)c(C(=O)NCC(=O)Nc2c(I)c(C(=O)O)c(I)c(C(=O)NCCO)c2I)c(I)c(N(C)C(C)=O)c1I [Compound 6, 2,4,6-triiodo-3-N-hydroxyethylcarbamyl-5-(2,4,6-triiodo-3-acetamido-5-N-methylacetamido-benzoyl)-glycylamino-benzoic acid]	480	+	10 grams I/kg	0	5.2	–
CNC(=O)c1c(I)c(C(=O)NCC(=O)Nc2c(I)c(NC(C)=O)c(I)c(C(=O)O)c2I)c(I)c(N(C)C(C)=O)c1I [Compound 25, 2,4,6-triiodo-3-acetamido-5-(2,4,6-triiodo-3-N-methylcarbamyl-5-N-methylacetamido-benzoyl)glycylamino-benzoic acid]	925	–	–	–	–	Peripheral vasodilatation, femoral rate of flow (femoral artery; 1.5 ml into collateral of femoral artery, 34% I, Na salt): ++; Acute toxicity in mice, i.v. (mice; 34% I, Na salt): 9 grams I/kg; Biliary clearance in cat, i.v. ([2]; i.v., 0.10 g I/kg, 34% I, Na salt): 0
CNC(=O)c1c(I)c(C(=O)NCCCC(=O)Nc2c(I)c(C(=O)O)c(I)c(C(=O)NCCO)c2I)c(I)c(N(C)C(C)=O)c1I [Compound 24, 2,4,6-triiodo-3-N-hydroxyethylcarbamyl5-(2,4,6-triiodo-3-N-methylcarbamyl-5-N-methylacetamidobenzoyl)-ε-amino-butyrylamino-benzoic acid]	575	+	8.5 grams I/kg	0	6	–
CNC(=O)c1c(I)c(NC(C)=O)c(I)c(C(=O)O)c1I [a, 2,4,6-Triiodo-3-N-methylcarbamyl-5-acetamido-benzoic acid, reference compound]	1410	+++	5.4 grams I/kg	–	–	Biliary clearance in cat, i.v. ([2]; in vivo, iv): 0
